Test results from US7517996B2, “Azole compound” (Ajinomoto Co., Inc., priority 2003, dated 2009).

Tests used:
[1] = Inhibition of LPA-induced intracellular Ca2+ concentration increase (FLIPR); assay type: cell-based; settings: LPA final concentration 5 μM; rat hepatic stellate cell derived myofibroblast like clone; Fluo-3, FLIPR
Source text: (1) Establishment of Myofibroblast Like Cell Strain Derived from Rat Hepatic Stellate Cell Fraction A stellate cell fraction was obtained from the liver of male Wistar rat according to a conventional method (European J. Biochem., 1993, vol. 213, p. 815). After subculture for several generations, the cell was cloned by limiting dilution. Well grown 24 clones that formed colonies were isolated. These clones were stained with αSMA antibody and confirmed to be all positive and to have Myofibroblast like properties. […] (2) Measurement of Cell Activation (Intracellular Ca^2+ Concentration Increasing Action)-Inhibitory Activity The above-mentioned cells were cultured overnight in a 384 well plate at 24,000 cells/well and the medium was removed. An assay buffer (0.1% BSA, 20 mM HEPES, 1×HBSS, 2.5 mM Probenecid) containing 4 μM of Fluo-3, AM (Biotium) was added, and the cells were stained at 37° C. for 1 hour. Following the buffer containing the dye reagent was removed, and an assay buffer was added, intracellular Ca^2+ concentration was measured with FLIPR (Molecular Devices). Adding a test substance and LPA at the final concentration of 5 μM, the inhibitory action of the test substance on the increase in the intracellular Ca^2+ concentration by LPA was examined. The increase in the intracellular Ca^2+ concentration by LPA addition without test substance was taken as 100%, that without the addition of LPA was taken as 0%, and the substrate's concentration (IC50) at inhibiting increase in the intracellular Ca^2+ concentration by 50% was determined.

EDG2 = EDG2 (Homo sapiens, UniProt Q92633); settings: as described in WO01/060819; cited from earlier work
Chain of EDG2 (Q92633 whole entry): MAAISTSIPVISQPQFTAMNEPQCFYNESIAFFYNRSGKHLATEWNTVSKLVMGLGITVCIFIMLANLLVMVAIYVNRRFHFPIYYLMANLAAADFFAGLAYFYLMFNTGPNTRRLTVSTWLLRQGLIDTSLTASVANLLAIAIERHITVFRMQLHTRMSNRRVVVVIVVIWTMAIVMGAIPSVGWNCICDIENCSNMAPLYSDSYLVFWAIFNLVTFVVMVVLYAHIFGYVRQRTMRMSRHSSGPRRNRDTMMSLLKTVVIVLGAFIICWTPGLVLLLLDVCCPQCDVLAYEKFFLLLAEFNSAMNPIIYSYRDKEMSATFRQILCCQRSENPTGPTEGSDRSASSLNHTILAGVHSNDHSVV

[2] = tested on: peripheral circulation disorder model induced by lactic acid; settings: animal model of peripheral arterial obstruction; as described in WO01/060819; cited from earlier work

For `COC(=O)CCSCc1ccc(-c2onc(C)c2NC(=O)OC(C)c2ccccc2Cl)cc1` (stereo not drawn) [Example 115, methyl 3-([4-[4-([[1-(2-chlorophenyl)ethoxy]carbonyl]amino)-3-methyl-5-isoxazolyl]benzyl]-sulfanyl)propanoate], the IC50 [1] is listed as 836 nM, the EDG2 antagonistic action (EDG2) is listed as “strong EDG2 antagonistic action” and the “action in peripheral circulation disorder model induced by lactic acid” value [2] is listed as “improving action”.
